Here are results for six molecules from ChEMBL document CHEMBL5625161, “Pharmacological activity and mechanism of pyrazines” (Eur J Med Chem, 2023).

For one data set, the system named is NCI-H460. Description: Antiproliferative activity against human NCI-H460 cells assessed as reduction in cell growth incubated for 48 hrs by CCK-8 assay. In kind it is functional, cell-based. The following applies: NCI-H460, 48 h. A general note: Formazan colour is commonly taken as a measure of viable cells.
Data set [1] deals with MCF7. Nature of the data set: Antiproliferative activity against human MCF7 cells assessed as reduction in cell growth incubated for 48 hrs by CCK-8 assay. The class given is functional, cell-based. The settings on record: MCF7, 48 h.
Another data set concerns DU-145. Description: Antiproliferative activity against human DU-145 cells assessed as reduction in cell growth incubated for 48 hrs by CCK-8 assay. In kind it is functional, cell-based. The settings on record: DU-145, 48 h.
Data set [2] relates to MCF7. Nature of the data set: Cytotoxicity against human MCF7 cells assessed as reduction in cell growth measured after 48 hrs by MTT assay. In kind it is functional, cell-based. The settings on record: MCF7, 48 h.
The nature of data set [3]: Cytotoxicity against human MRC5 cells assessed as reduction in cell growth measured after 48 hrs by MTT assay. In kind it is toxicity, cell-based.
Another data set relates to SGC-7901. Description: Antiproliferative activity against human SGC-7901 cells assessed as reduction in cell viability measured after 72 hrs by MTT assay. The class given is functional, cell-based. The settings on record: SGC-7901, 72 h.
Data set [4] is described as follows: Antiproliferative activity against human PaTu8988 cells assessed as reduction in cell viability measured after 72 hrs by MTT assay. The settings on record: PaTu8988, 72 h. The class given is functional, cell-based.
The next data set concerns SMMC-7721. Nature of the data set: Antiproliferative activity against human SMMC-7721 cells assessed as reduction in cell viability measured after 72 hrs by MTT assay. The following applies: SMMC-7721, 72 h. The class given is functional, cell-based.
The test system of another data set is Plasmodium falciparum. Nature of the data set: Antiplasmodial activity against chloroquine-sensitive Plasmodium falciparum NF54 assessed as reduction in parasite growth. The class given is functional, organism-based.
The subject of data set [5] is Mycobacterium tuberculosis. Description: Antimycobacterial activity against Mycobacterium tuberculosis H37Rv assessed as inhibition of bacterial growth by microplate alamar blue assay. In kind it is functional. On the technique in general: Resazurin is reduced to fluorescent resorufin, in cell work by metabolically active cells.
Data set [6] can be described thus: Cytotoxicity against mouse HL-1 cells assessed as cell viability incubated for 24 hrs by CytoTox-Glo luminescence assay relative to control. In kind it is toxicity, cell-based.
For the next data set, the system named is A549. Nature of the data set: Cytotoxicity against human A549 cells assessed as reduction in cell growth measured after 24 hrs by MTT assay. The class given is functional, cell-based. The following applies: A549, 24 h.

≈ marks a conversion by molar mass, not a printed value. A value given as a limit tells only on which side of the number the result lay.

As usually defined, the IC50 is the point on the concentration scale where inhibition reaches its midpoint. Regarding `C[C@@H]1[C@]2(O[C@H]3C=C4[C@@H]5CC[C@H]6Cc7nc8c(nc7C[C@]6(C)[C@H]5C[C@@H](O)[C@]4(C)[C@]31O)C[C@@H]1CC[C@H]3C4=CC[C@@H]5[C@H](C)[C@@]6(OC[C@]45C(=O)C[C@@H]3[C@@]1(C)C8)OC(C)(C)C[C@H]6O)O[C@](C)(CO)C[C@H]2O` [CEPHALOSTATIN 1], the IC50 in the data set with NCI-H460 came to 0.044 nM; with MCF7 [1] it was 0.099 nM; in the data set on DU-145 it was 0.11 nM.

With `C/C(=N\NC(=S)N1CCCCC1)c1cnccn1`, the IC50 in the data set with MCF7 [2] is 3820 nM. In addition, the IC50 at 48 h in data set [3] is greater than 60000 nM.

Take `COc1cccc(/C=N/C(=O)c2cnccn2)c1O`: the IC50 (in the data set with SGC-7901; in data set [4]; with SMMC-7721) was 300 nM each time.

For orientation: MIC99 means the lowest concentration that inhibits either 99% of growth or 99% of the strains tested, depending on the study. Regarding `O=C(NCCNc1ccnc2cc(Cl)ccc12)c1cnccn1`, in the data set on Plasmodium falciparum, the IC50 came to 647 nM. Further, the MIC99 in [5] came out at 320 µM (≈ 105 µg/mL).

On to `S=C(N/N=C(\c1ccccc1)c1ccccn1)Nc1ccccc1`, for which the IC50 at 24 h in [6] came out at 1430 nM.

As to `N/C(=N\N=C\c1ccccc1)c1cnccn1`, in the data set on A549, the IC50 came out at 0.173 µg/mL (≈ 0.768 µM).
